According to publication PMC8815882, “Screening the pandemic response box identified benzimidazole carbamates, Olorofim and ravuconazole as promising drug candidates for the treatment of eumycetoma” (PLoS Neglected Tropical Diseases, 2022):
Like-named read-outs stand apart in the source and are kept apart here.

Tested on: M. mycetomatis genome strain MM55
Test: CLSI M38-A2 based in vitro susceptibility screening (XTT or resazurin), growth at fixed concentration
Type: cell-based, Madurella mycetomatis
Details: Madurella mycetomatis; for Percent fungal survival at 100 µM: read-out: Percentage survival at 100um, 100 uM A (second replicate column)
[1] = mean of replicates, read-out: Percentage survival at 25um, 25 uM mean
[2] = replicate A, read-out: Percentage survival at 25um, 25 um A
[3] = replicate B, read-out: Percentage survival at 25um, 25 uM B
[4] = replicate C, read-out: Percentage survival at 25um, 25 uM C
[5] = mean of replicates, read-out: Percentage survival at 100um, 100 uM mean
[6] = replicate 1, read-out: Percentage survival at 100um, 100 uM A
[7] = replicate 2, read-out: Percentage survival at 100um, 100 uM A
[8] = replicate 3, read-out: Percentage survival at 100um, 100 uM A
[9] = mean of three, M. mycetomatis MM55, read-out: Percentage survival at 25um, 25 uM mean
[10] = replicate A, M. mycetomatis MM55, read-out: Percentage survival at 25um, 25 um A
[11] = replicate B, M. mycetomatis MM55, read-out: Percentage survival at 25um, 25 uM B
[12] = replicate C, M. mycetomatis MM55, read-out: Percentage survival at 25um, 25 uM C
[13] = mean of three, M. mycetomatis MM55, read-out: Percentage survival at 100um, 100 uM mean
[14] = replicate 1, M. mycetomatis MM55, read-out: Percentage survival at 100um, 100 uM A (first replicate column)
[15] = replicate 2, M. mycetomatis MM55
[16] = replicate 3, M. mycetomatis MM55, read-out: Percentage survival at 100um, 100 uM A (third replicate column)
[17] = mean, read-out: Percentage survival at 25um, 25 uM mean
[18] = mean, read-out: Percentage survival at 100um, 100 uM mean
[19] = replicate (first column), read-out: Percentage survival at 100um, 100 uM A
[20] = replicate (second column), read-out: Percentage survival at 100um, 100 uM A
[21] = replicate (third column), read-out: Percentage survival at 100um, 100 uM A
[22] = mean of three replicates, read-out: Percentage survival at 25um, 25 uM mean
[23] = mean of three replicates, read-out: Percentage survival at 100um, 100 uM mean
[24] = replicate 1, read-out: Percentage survival at 100um, 100 uM A (first replicate column)
[25] = replicate 3, read-out: Percentage survival at 100um, 100 uM A (third replicate column)

With `Nc1nc(-c2ccccc2)nc2c1ncn2[C@@H]1O[C@H](COS(=O)(=O)NC(=O)c2ccccc2O)[C@@H](O)[C@H]1O` [MMV1582488] the activity at 25 µM [1] was 78%, the activity at 25 µM [2] was 74.7% and the activity at 25 µM [3] was 83.6%. The activity at 25 µM [4] was 75.7%, the activity at 100 µM [5] was 72.1% and the activity at 100 µM [6] was 75.9%. For the same compound, the activity at 100 µM [7] was 69.3% and the activity at 100 µM [8] was 71.1%.

With `Cc1c[nH]c(=O)nc1NCc1ccccc1` [MMV1582489] the activity at 25 µM [1] was 93.3%, the activity at 25 µM [2] was 97.9% and the activity at 25 µM [3] was 91.7%. It also gave an activity at 25 µM [4] of 90.3%, an activity at 100 µM [5] of 88.7% and an activity at 100 µM [6] of 101%. The activity at 100 µM [7] was 80.8% and the activity at 100 µM [8] was 84.5%.

Compound `CCc1cc(Cc2cnc(N)nc2N)cc2c1N(C)CCC2C` (stereo not drawn) [MMV1582490] has an activity at 25 µM [1] of 67.6%, an activity at 25 µM [2] of 71.5% and an activity at 25 µM [3] of 64.7%. The activity at 25 µM [4] was 66.5%, the activity at 100 µM [5] was 69.5% and the activity at 100 µM [6] was 63.4%. The activity at 100 µM [7] was 83.5% and the activity at 100 µM [8] was 61.6%.

For `O=C(CCCC(F)(F)F)N1CCC(c2nc(-c3nccs3)no2)CC1` [MMV1582491], the activity at 25 µM [9] was 73.3%, the activity at 25 µM [10] was 68.8% and the activity at 25 µM [11] was 80.7%. For the same compound, the activity at 25 µM [12] was 70.4%, the activity at 100 µM [13] was 72.9% and the activity at 100 µM [14] was 57%. It also gave a Percent fungal survival at 100 µM [15] of 67% and an activity at 100 µM [16] of 94.8%.

Compound `Cc1nc(-c2ccc(C3N(C)c4ccc(F)cc4C(=O)N3c3ccccc3)s2)cs1` (stereo not drawn) [MMV1582492] has an activity at 25 µM [9] of 71%, an activity at 25 µM [10] of 80% and an activity at 25 µM [11] of 73.5%. For the same compound, the activity at 25 µM [12] was 59.4%, the activity at 100 µM [13] was 79.4% and the activity at 100 µM [14] was 66.4%. For the same compound, the Percent fungal survival at 100 µM [15] was 101% and the activity at 100 µM [16] was 70.8%.

Work on `C[C@@H](NC(=O)c1ccccc1-c1ccccc1)B(O)O` [MMV1582493] yielded an activity at 25 µM [17] of 84.3%, an activity at 25 µM [2] of 92.1% and an activity at 25 µM [3] of 87.2%. For the same compound, the activity at 25 µM [4] was 73.6%, the activity at 100 µM [18] was 83.3% and the activity at 100 µM [19] was 92.5%. It also gave an activity at 100 µM [20] of 73.6% and an activity at 100 µM [21] of 83.9%.

Compound `C[C@@H](O)[C@H](N)C(=O)NS(=O)(=O)c1cccc(-c2ccc3[nH]ncc3c2)c1` [MMV1582494] has an activity at 25 µM [17] of 82.4%, an activity at 25 µM [2] of 91.3% and an activity at 25 µM [3] of 83.3%. The activity at 25 µM [4] was 72.6%, the activity at 100 µM [18] was 79.4% and the activity at 100 µM [19] was 99.3%. For the same compound, the activity at 100 µM [20] was 66.8% and the activity at 100 µM [21] was 72.1%.

For `C(=C\c1nc2ccccc2[nH]1)/c1ccc2c(c1)OCO2` [MMV1582495], the activity at 25 µM [9] was 76.5%, the activity at 25 µM [10] was 78.1% and the activity at 25 µM [11] was 81.8%. For the same compound, the activity at 25 µM [12] was 69.8%, the activity at 100 µM [13] was 66.2% and the activity at 100 µM [14] was 59.7%. The Percent fungal survival at 100 µM [15] was 74.5% and the activity at 100 µM [16] was 64.2%.

`CC(C)c1ccc(COc2cccc(-c3cc([S+](C)[O-])c(C#N)c(=O)[nH]3)c2)cc1` (stereo not drawn) [MMV1582497] showed an activity at 25 µM [17] of 61.3%, an activity at 25 µM [2] of 65% and an activity at 25 µM [3] of 60.9%. The activity at 25 µM [4] was 58.1%, the activity at 100 µM [18] was 40.1% and the activity at 100 µM [19] was 1.56%. For the same compound, the activity at 100 µM [20] was 53.5% and the activity at 100 µM [21] was 65.4%.

In the case of `Cc1cc(Nc2ccc(F)cc2)nc(SCc2nc3ccccc3[nH]2)n1` [MMV1582498], the activity at 25 µM [17] is reported as 92.9%, the activity at 25 µM [2] is reported as 99.7% and the activity at 25 µM [3] is reported as 99%. The activity at 25 µM [4] was 80.1%, the activity at 100 µM [18] was 45% and the activity at 100 µM [19] was 67.6%. It also gave an activity at 100 µM [20] of 17.6% and an activity at 100 µM [21] of 49.8%.

In the case of `CCC(CC)[C@H](NC(C)=O)[C@@H]1[C@H](O)[C@@H](C(=O)O)C[C@H]1NC(=N)N` [MMV1593511], the activity at 25 µM [22] is reported as 92.7%, the activity at 25 µM [2] is reported as 97.1% and the activity at 25 µM [3] is reported as 98.3%. For the same compound, the activity at 25 µM [4] was 82.7%, the activity at 100 µM [23] was 89.1% and the activity at 100 µM [24] was 95.6%. The Percent fungal survival at 100 µM (replicate 2) was 83.3% and the activity at 100 µM [25] was 88.3%.

`CCCCCCCCCN1C[C@@H](O)[C@H](O)[C@@H](O)[C@@H]1CO` [MMV1593513] gave an activity at 25 µM [22] of 93.6%, an activity at 25 µM [2] of 92% and an activity at 25 µM [3] of 104%. It also gave an activity at 25 µM [4] of 85.1%, an activity at 100 µM [23] of 87.5% and an activity at 100 µM [24] of 91.7%. The Percent fungal survival at 100 µM (replicate 2) was 84.5% and the activity at 100 µM [25] was 86.2%.
